Experimental data: BigSolDB 2.1

O=C(Nc1ccc(F)cc1F)c1cccnc1Oc1cccc(C(F)(F)F)c1
solubility (mole fraction)
Details	278.15 K	283.15 K	288.15 K	293.15 K	298.15 K	303.15 K	308.15 K	313.15 K	318.15 K	323.15 K
in DMF	0.000523	0.000679	0.000847	0.00104	0.00127	0.00153	0.00182	0.00213	0.00255	0.00298
in ethanol	0.000244	0.000319	0.000425	0.000537	0.000683	0.000901	0.00111	0.00142	0.00176	0.00216
in ethylene glycol	1.42e-05	1.76e-05	2.25e-05	2.71e-05	3.28e-05	3.89e-05	4.62e-05	5.41e-05	6.34e-05	7.49e-05
in propylene glycol	4.63e-05	5.76e-05	7.29e-05	9.02e-05	0.000108	0.000129	0.000152	0.00018	0.000209	0.000245
in water	1.45e-07	2.02e-07	2.68e-07	3.33e-07	4.08e-07	4.98e-07	6.05e-07	7.25e-07	8.72e-07	1.04e-06
